Measured values from ChEMBL document CHEMBL1155857, “Benzodiazepine ligands can act as allosteric modulators of the Type 1 cholecystokinin receptor” (Bioorg Med Chem Lett, 2008).

Biological target: T1, Cholecystokinin receptor type A (Rattus norvegicus) (UniProt P30551)
T1 sequence (whole entry): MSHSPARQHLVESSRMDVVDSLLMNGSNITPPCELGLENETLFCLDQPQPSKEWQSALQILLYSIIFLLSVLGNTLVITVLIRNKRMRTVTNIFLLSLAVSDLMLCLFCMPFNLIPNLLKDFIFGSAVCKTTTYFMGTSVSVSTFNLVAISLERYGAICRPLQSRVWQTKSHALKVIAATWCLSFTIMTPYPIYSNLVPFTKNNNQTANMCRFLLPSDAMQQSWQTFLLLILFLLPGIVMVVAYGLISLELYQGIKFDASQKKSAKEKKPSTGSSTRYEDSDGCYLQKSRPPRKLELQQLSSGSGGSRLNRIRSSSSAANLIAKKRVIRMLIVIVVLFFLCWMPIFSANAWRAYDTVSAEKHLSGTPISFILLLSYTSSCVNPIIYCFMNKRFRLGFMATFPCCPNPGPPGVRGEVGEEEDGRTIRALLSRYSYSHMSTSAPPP
Assay: Displacement of [125I]CCK from rat CCK1 receptor expressed in CHO cells
Assay type: cell-based

Q: For `CN1C(=O)[C@@H](NC(=O)c2cc3ccccc3[nH]2)N=C(c2ccccc2)c2ccccc21`, which pKb is on record?
A: 8.35
